The record followed here is paper PMC10487708, “Chlorin E6-Curcumin-Mediated Photodynamic Therapy Promotes an Anti-Photoaging Effect in UVB-Irradiated Fibroblasts” (International Journal of Molecular Sciences, 2023).

Molecules are shown by their SMILES. Where “and” joins values, the source holds several entries; their conditions need not be identical. Identical values can stand only once. Like-named read-outs stand apart in the source and are kept apart here.

The nature of series [1]: ABTS radical scavenging activity. It is filed as biochemical. As to the method:
[…] in 2.5 mM potassium persulfate for more than 16 h to develop 7 mM 2,2′-azinobis-(3-ethylbenzothiazoline-6-sulfonic acid diammonium salt) (ABTS), and ethanol was diluted to obtain an absorbance of 0.3 at 620 nm. Each composite sample was diluted by concentration, and 100 μL of the sample was put into each well along with 50 μL each of ABTS reagent and solvent; reacted at room temperature for 10 min, and absorbance was measured at 620 nm. ABTS activity inhibition (%) = 100 − [test group-blank]/(control group-blank) × 100]

Series [2] is described as follows: ORAC (oxygen radical absorbance capacity) assay. It is filed as biochemical. Particulars: Trolox equivalent. The procedure: The ORAC assay is based on the scavenging of peroxyl radicals generated by 2,2′-azobis(2-methylpropioamidine) dihydrochloride (AAPH), which prevents the degradation of the fluorescein probe. The ORAC values were calculated as the area under the curve (AUC) and expressed as µM of Trolox equivalent (TE).

The next series relates to Hs68 cells. Put plainly: MTT cell viability of Hs68 cells with or without LED light. It is filed as cell-based, human. The settings on record: for IC50: Homo sapiens, light or radiation study, Hs68 cells. As to the method: Data were represented as mean ± SD from at least three independent experiments and analyzed by one-way ANOVA with Tukey’s post hoc test, * p < 0.01, compared with vehicle-treated control.
Hs68 and BALB/c 3T3 cell viability was measured using a 3-[4,5-dimethylthylthiazol-2-yl]-2,5 diphenyl tetrazolium bromide (MTT) assay. The cells were cultured in 24-well plates at a density of 3 × 10^4 cells per well or BALB/c 3T3 cells at a density of 1 × 10^4 cells per well. […] The Hs68 cells were then exposed to LED light (660 nm; 89 W/m^2; 20 J/cm^2) for 37 min 27 s and incubated for 3 h. […] The cells were washed and treated with MTT, after which the plates were incubated at 37 °C in the dark for 2 h. After the formation of formazan, 100 µL of DMSO was added, and the absorbance was measured at 570 nm using a microtiter plate reader (Thermo-scientific, Skanlt software 5.0, Waltham, MA, USA)

The mark [3] stands for this setting: dark, read-out: Dark Condition (EC50, μM) ABTS radical scavenging.

Consider `NCC(=O)CCC(=O)O` [5-ALA, 5-Aminolevulinic acid, reference compound], for which, in series [1] (setting [3]), the EC50 (usually the concentration giving half of the maximal effect) amounted to 60.3 ± 9.51 µM. For the same molecule, the “ORAC Dark Condition (TE, μM)” value in series [2] (1 μM compound) and in series [2] (10 μM compound) was “undetectable” in each case.

Regarding `C=Cc1c(C)c2cc3nc(c(CC(=O)O)c4[nH]c(cc5nc(cc1[nH]2)C(C)=C5CC)c(C)c4C(=O)O)[C@@H](CCC(=O)O)[C@@H]3C` [Ce6, Chlorin e6], the half-maximal inhibitory concentration (IC50) – broadly, the concentration needed to halve the response being measured – in the series on Hs68 cells (LED 660 nm 20 J/cm^2, MTT, read-out: Phototoxicity (IC50)) is 0.615 µM; in the series on Hs68 cells (without LED irradiation, MTT, read-out: Dark Toxicity (IC50)), not below 1 µM. The “cytotoxicity for Hs68 cells” value with Hs68 cells (dark, up to 1000 nM) is on record as “almost no cytotoxicity”. Further, the EC50 in series [1] (LED light, read-out: LED Condition (EC50, μM) ABTS radical scavenging) is ~19.8 µM and 19.8 µM; in series [1] (setting [3]), ~13.6 µM and 13.6 µM. Besides, the “ORAC LED Condition (TE, μM)” value amounted to 22.11 µM in series [2] (LED 20 J/cm^2, 1 μM compound) and 53.85 µM in series [2] (LED 20 J/cm^2, 10 μM compound). The “ORAC Dark Condition (TE, μM)” value in series [2] (1 μM compound) amounted to 18.5 µM; in series [2] (10 μM compound) it was 47.72 µM.
